# According to PubChem BioAssay (NCI):
#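 Each compound was tested at five concentrations against cells in 96-well plates for 48 hours. GI50 marks 50% less growth. TGI: concentration producing complete growth inhibition.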
# System: MDA-MB-468 breast
# Test: DTP human tumour cell line panel, 48 h
SMILES,GI50 [nM],TGI [nM]
CCN(CC)CC(C)Nc1ccc([N+](=O)[O-])c2sc3ccccc3c(=O)c12 (centres undefined),1810,5790
Cn1cc(-c2ccc3occ(-c4cccc(-c5ccncc5)c4)c3n2)cn1,240,941
Cc1cc(N(CCCl)CCCl)ccc1C=Nc1ccc(-c2csc(Cc3ccccc3)n2)cc1,160,2860
CCc1nccc2c1nc(-c1nonc1N)n2CC,> 25000,> 25000
COc1cccc2c1c(C(=O)C(=O)Nc1cc(C)no1)cn2Cc1ccc(F)cc1,2420,17700
COc1ccc(-c2csc(N(C(=O)N3CCN(c4cc5c(cc4F)c(=O)c(C(=O)O)cn5C4CC4)CC3)c3ccccc3)n2)cc1,2550,8740
OC(c1cc(-c2ccccc2)nc2ccc(Cl)cc12)C1CCCCN1 (centres undefined),2010,3860
OC1CCN(CCCOc2c3ccc(Cl)cc3nc3c2oc2ccc(Cl)cc23)CC1,1820,7880
O=c1cc(-c2ccccc2)[nH]c2ccccc12,481,–
N=C(N)c1ccc(-c2ccc(-c3cc(Cl)cc(Cl)c3)o2)nc1,1690,3290
Cc1ccc(-c2nc(C(Cl)Cl)nc3cc(-c4ccccc4)nn23)cc1,2940,–
CCCC(C)c1cc(Cc2cc(Cl)cc(Cl)c2O)c(O)c(Cc2cc(Cl)cc(Cl)c2O)c1 (centres undefined),393,5070
CC1(C)CC(=O)c2c(C(F)(F)F)nn(-c3ccc(C(N)=O)c(NC4CCC(OC(=O)CN)CC4)c3)c2C1 (centres undefined),24.3,68.3
CC(C)C[C@H]1C(=O)O[C@H](C(C)C)C(=O)N(C)[C@@H](C(C)C)C(=O)O[C@H](C(C)C)C(=O)N(C)[C@@H](C(C)C)C(=O)O[C@H](C(C)C)C(=O)N1C,2010,9350
Cc1ccccc1[P+](Cc1ccccc1)(c1ccccc1)c1ccccc1,367,4000
COc1ccc2nc(-c3ccc(-c4noc(-c5cc(OC)c(OC)c(OC)c5)n4)cc3)[nH]c2c1,6540,26300
COc1ccc(-c2n/c(=C\c3c(O)[nH]c4ccc(OC)cc34)cc3c2=Nc2ccccc2-3)cc1,1560,3460
COc1cccc(-n2ncc3c(N/N=C/c4ccc(C(=O)NCCN(C)C)cc4)ncnc32)c1,853,5160
COC(=O)[C@@]1(C)CC[C@]2(C)CC[C@]3(C)C4=CC=C5C(=CC(=O)C(O)=C5C)[C@]4(C)[C@@H](O)C[C@@]3(C)[C@@H]2C1,9710,21900
COc1cc(/C=C/c2cc(O)c3cc(C(C)=O)c(=O)oc3c2)cc2c1O[C@]1(C)CC[C@@H](O)C(C)(C)[C@H]1C2,3870,20500
O=C(O)/C=C\C(=O)N1C/C(=C\c2ccccc2Cl)C(=O)/C(=C/c2ccccc2Cl)C1,1540,3460
Oc1cccc2ccc(N/N=C/c3cc(CN4CCCCC4)c(O)c4ncccc34)nc12,40.1,533

SMILES,GI50 [nM],TGI [nM]
CN(C)CC(=O)Nc1ccc(Cn2nnc3c2C(=O)c2nnn(Cc4ccc(NC(=O)CN(C)C)cc4)c2C3=O)cc1,104,258
COc1cc2c(c(OC)c1)C1c3ccccc3NC(=O)N1CC2 (centres undefined),2550,8570
COc1ccc2c(c1)cn1c3ccc(O)cc3nc(N)c21,747,4730
COc1ccc(/C=C2\CCCC3=C2N=C2SC(C)=NN2C3c2ccc(OC)c(OC)c2)cc1OC (centres undefined),2610,9090
C=CCOc1cccc(/C=C2\SC(=Nc3ccc(O)cc3)NC2=O)c1,416,4170
CC[C@@H](C(=O)O)C1CC[C@H](C)C([C@@H](C)[C@H](O)[C@H](C)C(=O)[C@H](CC)C2O[C@]3(C=C[C@@H](O)[C@]4(CC[C@@](C)(C5CC[C@](O)(CC)[C@H](C)O5)O4)O3)[C@H](C)C[C@@H]2C)O1 (some centres undefined),292,4340
COC(=O)[C@H](C[C@H](Cc1ccccc1)NC(=O)c1csc([C@@H](C[C@H](C(C)C)N(C)C(=O)[C@@H](NC(=O)[C@H]2CCCCN2C)C(C)C)OC(C)=O)n1)NC(=O)OCc1ccccc1,< 0.9,< 0.9
NCCOCCOCCNc1nc(Cc2ccccc2)nc(NCCCN2CCCC2=O)n1,> 100000,> 100000
COc1ccc2sc3c(NCCCN(C)C)nc4ccccc4c3c(=O)c2c1,1620,3210
Nc1nc2c(c3ncncc13)C(c1cccc(C(F)(F)F)c1)Cc1ncncc1-2 (centres undefined),2780,8890
COc1ccc(-c2c3c(N)nc(-c4ccncc4)nc3nc3c2c(C)nn3-c2ccccc2)cc1,7750,> 100000
O=C(NCCO)Nc1ccc(-c2nc(N3CCOCC3)c3cccn3n2)cc1,88.9,2350
COc1ccc(/C(=C2/O[C@@H]([C@H]3COC(C)(C)O3)[C@H]3OC(C)(C)O[C@@H]23)c2cc(OC)c(OC)c(OC)c2)cc1O,25600,63600
CN1CCC(n2cnc(-c3ccc(F)cc3)c2-c2ccnc(NCCO)n2)CC1,10000,> 25000
CC(C)c1cc(-c2n[nH]c(=O)n2-c2ccc3c(ccn3C)c2)c(O)cc1O,< 14.3,327
COc1cc(C2CC(c3ccc4c(c3)OCO4)=NN2C=O)cc(OC)c1OC (centres undefined),2050,6810
CC#C[C@]1(O)CC[C@H]2[C@@H]3CCC4=CC(=O)CCC4=C3[C@@H](c3ccc4c(c3)OCO4)C[C@@]21C,101000,559000
CC1SC(c2ccccc2)N(CCc2cccs2)C1=O (centres undefined),2430,8420
O=C1c2cccnc2C(=O)c2nc3cc(N4CCN(C5CC5)CC4)ccc3nc21,1680,4030
O=C(CCCCCCC(=O)Nc1ccc(N(CCCl)CCCl)cc1)NO,232,1110
CCCCC(CC)CN=C(N)NC(N)=NCCCCCCN=C(N)NC(N)=NCC(CC)CCCC (centres undefined),1270,2730
